From US11440935B2, “3″,5″-dimethoxybenzoyl-3′-amino-3′-deoxy adenosine-5′-triphosphates and pharmaceutical uses thereof” (Danmir Therapeutics, LLC, priority 2018, dated 2022)
Several values for one entry are separate records, joined by “and”; a condition that tells them apart may be missing. Identical values can stand only once.

Key:
P2Y13 = molecular target: T1, P2Y13 (Homo sapiens, UniProt Q9BPV8); assay: PDSP functional assay in vitro (PRESTO-Tango), agonist/antagonist; format: cell-based
T1 construct: expressed in transfected cells
T1 sequence (Q9BPV8 1-354): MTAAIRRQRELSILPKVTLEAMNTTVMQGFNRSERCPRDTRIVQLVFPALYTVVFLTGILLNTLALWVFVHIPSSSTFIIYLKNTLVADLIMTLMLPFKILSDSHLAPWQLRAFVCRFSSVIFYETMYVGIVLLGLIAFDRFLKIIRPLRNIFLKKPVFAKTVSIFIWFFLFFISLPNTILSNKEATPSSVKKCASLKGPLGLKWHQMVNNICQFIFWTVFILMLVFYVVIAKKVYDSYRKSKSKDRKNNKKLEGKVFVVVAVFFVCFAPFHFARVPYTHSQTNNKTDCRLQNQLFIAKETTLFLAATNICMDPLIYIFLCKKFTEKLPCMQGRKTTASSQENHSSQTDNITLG
Method: (§1) The assays were carried out utilizing the method set forth in Kroeze et al., PRESTO-Tango as an open-source resource for interrogation of the druggable human GPCRome, Nat. Struct. Mol. Biol. 2015 May; 22(5):362-9.

P2Y4 = molecular target: T2, P2Y4 (Homo sapiens, UniProt P51582); assay: as above; format: cell-based
T2 construct: expressed in transfected cells
T2 sequence (P51582 whole entry): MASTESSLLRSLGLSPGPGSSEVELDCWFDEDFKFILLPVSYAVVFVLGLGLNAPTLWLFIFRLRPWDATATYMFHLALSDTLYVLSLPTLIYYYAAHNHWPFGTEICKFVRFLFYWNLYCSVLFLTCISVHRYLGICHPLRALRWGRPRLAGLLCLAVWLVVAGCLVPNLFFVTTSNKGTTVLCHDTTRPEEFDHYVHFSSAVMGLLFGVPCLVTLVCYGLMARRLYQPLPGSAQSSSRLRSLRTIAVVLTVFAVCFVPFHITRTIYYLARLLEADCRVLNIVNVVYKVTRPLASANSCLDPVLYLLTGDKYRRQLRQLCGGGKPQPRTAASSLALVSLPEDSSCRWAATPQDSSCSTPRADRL
Method: as §1

P2Y2 = molecular target: T3, P2Y2 (Homo sapiens, UniProt P41231); assay: as above; format: cell-based
T3 construct: expressed in transfected cells
T3 sequence (P41231 whole entry): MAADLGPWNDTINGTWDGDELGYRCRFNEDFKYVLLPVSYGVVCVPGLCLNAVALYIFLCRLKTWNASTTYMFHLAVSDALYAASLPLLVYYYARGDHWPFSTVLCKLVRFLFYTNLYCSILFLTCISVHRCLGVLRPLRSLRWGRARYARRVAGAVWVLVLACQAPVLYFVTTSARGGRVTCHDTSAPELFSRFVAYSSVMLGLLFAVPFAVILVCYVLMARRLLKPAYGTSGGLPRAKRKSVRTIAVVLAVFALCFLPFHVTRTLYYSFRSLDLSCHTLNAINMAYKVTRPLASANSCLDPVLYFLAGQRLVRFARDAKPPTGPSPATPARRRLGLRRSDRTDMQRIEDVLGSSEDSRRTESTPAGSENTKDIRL
Method: as §1

P2Y6 = molecular target: T4, P2Y6 (Homo sapiens, UniProt Q15077); assay: as above; format: cell-based
T4 construct: expressed in transfected cells
T4 sequence (Q15077 whole entry): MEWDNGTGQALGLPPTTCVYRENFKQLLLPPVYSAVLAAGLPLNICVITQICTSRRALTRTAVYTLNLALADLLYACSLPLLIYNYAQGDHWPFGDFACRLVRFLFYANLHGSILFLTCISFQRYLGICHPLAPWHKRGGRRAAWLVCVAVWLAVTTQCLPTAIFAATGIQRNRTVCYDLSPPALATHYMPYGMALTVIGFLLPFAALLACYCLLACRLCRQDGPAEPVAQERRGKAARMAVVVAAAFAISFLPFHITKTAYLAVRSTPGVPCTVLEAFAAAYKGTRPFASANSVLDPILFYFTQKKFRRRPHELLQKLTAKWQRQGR
Method: as §1

P2Y1 = molecular target: T5, P2Y1 (Homo sapiens, UniProt P47900); assay: as above; format: cell-based
T5 construct: expressed in transfected cells
T5 sequence (P47900 whole entry): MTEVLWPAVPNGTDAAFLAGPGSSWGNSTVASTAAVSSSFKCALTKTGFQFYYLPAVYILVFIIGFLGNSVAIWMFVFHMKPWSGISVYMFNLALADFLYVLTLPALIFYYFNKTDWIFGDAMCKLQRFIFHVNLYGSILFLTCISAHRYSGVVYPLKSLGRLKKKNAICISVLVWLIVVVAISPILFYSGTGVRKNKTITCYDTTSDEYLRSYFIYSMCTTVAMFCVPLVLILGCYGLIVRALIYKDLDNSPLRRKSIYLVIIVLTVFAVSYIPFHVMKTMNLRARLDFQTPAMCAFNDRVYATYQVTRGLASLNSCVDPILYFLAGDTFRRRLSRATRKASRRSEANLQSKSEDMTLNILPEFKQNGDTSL
Method: as §1

P2Y12 = molecular target: T6, P2Y12 (Homo sapiens, UniProt Q9H244); assay: as above; format: cell-based
T6 construct: expressed in transfected cells
T6 sequence (Q9H244 whole entry): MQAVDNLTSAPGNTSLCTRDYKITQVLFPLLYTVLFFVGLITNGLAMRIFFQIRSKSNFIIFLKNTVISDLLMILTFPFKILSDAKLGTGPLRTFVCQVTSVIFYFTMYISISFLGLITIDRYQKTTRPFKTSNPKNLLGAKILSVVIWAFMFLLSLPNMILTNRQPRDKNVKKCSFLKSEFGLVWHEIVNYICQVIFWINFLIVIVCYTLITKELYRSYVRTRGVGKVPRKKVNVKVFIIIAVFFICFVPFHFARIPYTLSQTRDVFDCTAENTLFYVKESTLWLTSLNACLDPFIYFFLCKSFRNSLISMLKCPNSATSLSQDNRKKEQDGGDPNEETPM
Method: as §1

P2Y14 = molecular target: T7, P2Y14 (Homo sapiens, UniProt Q15391); assay: as above; format: cell-based
T7 construct: expressed in transfected cells
T7 sequence (Q15391 1-338): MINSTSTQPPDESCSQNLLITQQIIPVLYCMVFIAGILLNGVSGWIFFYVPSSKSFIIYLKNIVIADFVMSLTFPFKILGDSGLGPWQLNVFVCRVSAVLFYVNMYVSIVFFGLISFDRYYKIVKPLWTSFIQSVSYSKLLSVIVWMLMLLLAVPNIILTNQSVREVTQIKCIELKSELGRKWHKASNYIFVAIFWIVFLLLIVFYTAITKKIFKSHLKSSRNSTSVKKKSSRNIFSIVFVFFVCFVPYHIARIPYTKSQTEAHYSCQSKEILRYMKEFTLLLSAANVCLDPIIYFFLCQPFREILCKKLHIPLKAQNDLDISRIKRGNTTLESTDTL
Method: as §1

conscious guinea-pigs = assay: Aerosolized ATP-induced cough in conscious free moving guinea-pigs; format: in vivo, guinea-pig
Method: This study was performed in 6 guinea-pigs. The housing room was constantly ventilated, and the temperature kept at ˜23° C. After quarantine, the animals were individually placed in a whole-body, unrestrained, plethysmograph chamber (model PLY3215, Buxco Electronics Inc., Troy, N.Y.) for ˜40 min once a day for two continuous days before the cough test. All GPs were weighed before the cough study.
ATP was purchased from Sigma-Aldrich (Cat #A2383-10G). Solutions of ATP used for aerosol challenge were freshly made just prior to use by dissolving the powder in 0.9% saline (NaCl) solution. Solutions of DT-0111 used for aerosol administration were freshly made by dissolving the powder in 0.9% saline (NaCl) solution.
A plethysmograph chamber was continuously flushed with normoxic (21% O2 and 79% N2) room air at 2 L/min. The same amount of air was drawn through the chamber base outlets using a Buxco bias flow regulator to keep the chamber bias flow balanced. ATP or DT solution was aerosolized by using a vibrating mesh nebulizer (Ireland Ltd., Galway Ireland, AG-AL1100). The output rate of delivered aerosol was around 0.5 ml/min with droplet size (volume median diameter) at 2.5-4.0 μm (manufacture's indications). The aerosol was mixed with airflow and directly delivered into the plethysmograph chamber. The latter was placed in a standard chemical fume hood (size: 3×6 ft) installed in a standard laboratory.
A guinea-pig was placed in the chamber again after adaptation. Following stabilization, #1 guinea-pig was exposed to aerosolized ATP at 6 mg/ml, 24 mg/ml, and then 48 mg/ml for 5 min with an interval of 30 min. The remaining animals (#2-#6 guinea-pigs) were exposed to aerosolized ATP at 48 mg/ml for 5 min. Approximately 140 min later, the same dose of ATP was repeated immediately after DT-0111 aerosol inhalation (12 mg/ml for 5 min). […] The cough sound and behavioral activities were continuously monitored and recorded before (for 3 min), during 5 min aerosol delivery, and 20 min after cessation of the delivery.
Setup of the cough recording system. The top of the plethysmograph chamber was connected with a plastic tube that was attached by the nebulizer. Normoxic air driven by the nebulizer controller was flowed into the chamber and sucked out by the bias flow regulator with the in and out flow volume balanced (2.0 L/min). To detect cough, a microphone system was mounted in the roof of the chamber to record sound; a video camera was placed outside of the chamber to monitor animal body posture; and a Buxco pneumotachograph (differential pressure transducer) attached to the chamber to record airflow. All signals generated by video camera, microphone, and pressure transducer were amplified and recorded continuously by PowerLab/8 sp (model ML 785; ADInstruments Inc., Colorado Springs, Colo.) and a computer with the LabChart Pro 7 software.
Cough count. A typical cough response, as reported before (Girard et al., Eur Respir J, 1995; Blasko et al., American Journal of Advanced Drug Delivery. 5:131-138, 2017; Corboz et al., Journal of Pharmacology and Experimental Therapeutics. 363: 348-357, 2017), was defined by the simultaneous appearance of: 1) a transient and great change in the airflow (a rapid inspiration followed by rapid expiration); 2) a typical cough sound with the peak power density at 1-2 kHz in frequency spectrum (sneeze at 3.5-6.5 kHz); and 3) animal body (head) posture and movement.

[1] = DT (12 mg/ml, 5 min) + ATP (48 mg/ml), per guinea-pig
[2] = aerosolized DT-0111 12 mg/ml, n=5

“Sodium 3′-N-(3,5-dimethoxybenzoyl)-3′-deoxy-β-D-adenosine 5′-triphosphate [DT-0111]” was tested, and the “agonist or antagonist action at receptor” value (P2Y13) was “does not act as an agonist or antagonist”, the “agonist or antagonist action at receptor” value (P2Y4) was “does not act as an agonist or antagonist” and the “agonist or antagonist action at receptor” value (P2Y2) was “does not act as an agonist or antagonist”. The “agonist or antagonist action at receptor” value (P2Y6) was “does not act as an agonist or antagonist”, the “agonist or antagonist action at receptor” value (P2Y1) was “does not act as an agonist or antagonist” and the “agonist or antagonist action at receptor” value (P2Y12) was “does not act as an agonist or antagonist”. For the same substance, the “agonist or antagonist action at receptor” value (P2Y14) was “does not act as an agonist or antagonist”, the “Bout Cough T1#” value (conscious guinea-pigs; [1]) was 0 and the “Bout Cough T2#” value (conscious guinea-pigs; [1]) was 0. The “Individual Cough” value (conscious guinea-pigs; DT (12 mg/ml, 5 min) + ATP (48 mg/ml), per guinea-pig, listed as DT) was 0 (2×) and 1 (2×) and 7, the “effect on ATP-induced bout of coughs” value (conscious guinea-pigs; [2]) was “blocked the bout of coughs in all tested animals” and the “effect on ATP-induced individual coughs” value (conscious guinea-pigs; [2]) was “little effect on individual coughs”. For the same substance, the “cough evoked by the compound per se” value (conscious guinea-pigs; aerosolized DT-0111 alone) was “did not evoke any cough”.
